Source: patent EP1489910B1 (priority 2002, dated 2003)
Where “and” joins values, the source holds several entries; their conditions need not be identical. Identical values can stand only once. Like-named read-outs stand apart in the source and are kept apart here.

How the values were obtained:
HSV = conditions: legend not given; cited from earlier work
measles = conditions: in-vitro; cited from earlier work
herpes viruses = conditions: in-vitro; cited from earlier work
CMV = conditions: plants infected with CMV; one range printed for CMV and ToMV; cited from earlier work
ToMV = conditions: plants infected with ToMV; one range printed for CMV and ToMV; cited from earlier work
PVX = conditions: susceptible virus PVX; cited from earlier work
CLSV = conditions: susceptible virus CLSV; cited from earlier work
cucumber mosaic virus = assay type: in vivo, Cucumber mosaic virus (CMV)
influenza A2 (Japan 305) = tested on: influenza A2 (Japan 305); design: dose or concentration left out as unconfirmed; conditions: in-vitro; 1/4 of its estimated maximum tolerated concentration; cited from earlier work
[1] = tested on: pseudorabies virus (Suid herpes virus 1, SHV-1); conditions: cited from earlier work
HSVlesions = HSVlesions in humans; cited from earlier work
VSV = conditions: legend not given; cited from earlier work
Vaccinia = conditions: legend not given; cited from earlier work
adenovirus = conditions: no symbol given; cited from earlier work
HSV Keratitis = HSV Keratitis in rabbits; cited from earlier work
[2] = 1000-ppm 2-Thiouracil as control

CC1(C)[C@@H](O[C@H]2O[C@H](C(=O)O)[C@@H](O)[C@H](O)[C@H]2O[C@@H]2O[C@H](C(=O)O)[C@@H](O)[C@H](O)[C@H]2O)CC[C@]2(C)[C@H]3C(=O)C=C4[C@@H]5C[C@@](C)(C(=O)O)CC[C@]5(C)CC[C@@]4(C)[C@]3(C)CC[C@@H]12 [Glycyrrhizin]
Virucidal (HSV): +slight effect

C[C@H]1O[C@@H](O[C@H]2CC[C@@]3(C)[C@@H](CC[C@]4(C)[C@@H]3C=C[C@]35OC[C@@]6(CCC(C)(C)C[C@H]63)[C@H](O)C[C@]54C)[C@]2(C)CO)[C@H](O)[C@@H](O[C@@H]2O[C@H](CO)[C@@H](O)[C@H](O)[C@H]2O)[C@H]1O [Saikosaponin-d]
concentration that causes inactivation (measles): greater than 5 µM
concentration that causes inactivation (herpes viruses): greater than 5 µM

O=C1NCCCN1CN1CCOCC1 [DD13, 1-Morpholino methyl-tetrahydro-2-(1H)-pyrimidinone]
protective effect in % plants infected (CMV): 97-100%
protective effect in % plants infected (ToMV): 97-100%

NC(=O)c1ncn([C@@H]2O[C@H](CO)[C@@H](O)[C@H]2O)n1 [Ribavirin]
concentration needed to inhibit local lesion development and to prevent infection (PVX): Approximately 1000 ppm
concentration needed to inhibit local lesion development and to prevent infection (CLSV): Approximately 1000 ppm

NC12CC3CC(CC(C3)C1)C2 [Amantadine]
Average No of lesions Control (cucumber mosaic virus; 1000-ppm Amantadine as control): 4.5 and 4.0 and 4.8
No of lesions on Control (cucumber mosaic virus; 1000-ppm Amantadine as control): 45 and 40 and 48
inhibition of influenza A2 (Japan 305) (influenza A2 (Japan 305)): 98%

crossasteroside D
inhibit plaque formation [1]: 27%

crossasteroside B
inhibit plaque formation [1]: 43%

Carbenoxolone/ cicloxolone
Virucidal (HSV): +HSV
Active in vivo (HSVlesions): HSVlesions in humans

CC1(C)[C@@H](O)CC[C@]2(C)[C@H]3C(=O)C=C4[C@@H]5C[C@@](C)(C(=O)O)CC[C@]5(C)CC[C@@]4(C)[C@]3(C)CC[C@@H]12 [Glycyrrhetinic acid]
Virucidal (HSV): +HSV only

O=c1cc[nH]c(=S)[nH]1 [2-Thiouracil]
Average No of lesions Control (cucumber mosaic virus; [2]): 1.9 and 1.7 and 1.1
No of lesions on Control (cucumber mosaic virus; [2]): 19 and 17 and 11

Hydroxy-protoprimulagenin
Virucidal (HSV): +HSV only
Other viruses: VSV (VSV): VSV Vaccinia adenovirus
Other viruses: Vaccinia (Vaccinia): VSV Vaccinia adenovirus
Other viruses: adenovirus (adenovirus): VSV Vaccinia adenovirus
Active in vivo (HSV Keratitis): HSV Keratitis in rabbits
